Test results from US20200222474A1, “COMPOSITIONS AND METHODS FOR INCREASING PHYTOCHEMICAL BIOAVAILABLITY AND BIOACTIVITY” (North Carolina State University, priority 2017, published 2020).

System: L. acidophilus NCFM
Assay: RNA-seq transcriptional analysis of L. acidophilus NCFM growing on plant glycosides
Type: cell-based, Lactobacillus acidophilus
[1] = LBA0329 Putative cell division protein, COG D
[2] = LBA0466 Hypothetical protein, COG C
[3] = LBA0500 MSM operon repressor, COG K
[4] = LBA0545 Hypothetical protein, COG L
[5] = LBA0547 Putative site-specific recombinase, COG L
[6] = LBA0573 Putative transcriptional regulator, COG K
[7] = LBA0607 Putative transcriptional regulator, COG K
[8] = LBA0672 Putative phosphate starvation inducible protein stress related, COG J
[9] = LBA0753 Multi-drug-type permease, COG GEPR
[10] = LBA0886 Sugar kinase-putative transcriptional regulator, COG KG
[11] = LBA0887 Hypothetical protein, COG C
[12] = LBA0897 Putative Cro-like protein, COG K
[13] = LBA0910 L-lactate dehydrogenase, COG C
[14] = LBA1021 Putative transcriptional regulator, COG K
[15] = LBA1220 Pyridine mercuric reductase, COG C
[16] = LBA1392 Mucus binding protein precursor Mub, COG J
[17] = LBA1411 Fumarate reductase flavoprotein subunit, COG CS
[18] = LBA1436 Glycerol uptake facilitator protein, COG G
[19] = LBA1457 Galactose-1-epimerase, COG G
[20] = LBA1458 Galactose-1-phosphate uridylyltransferase, COG G
[21] = LBA1462 Beta-galactosidase, COG G
[22] = LBA1463 Lactose permease, COG G
[23] = LBA1465 Transcription repressor of beta-galactosidasegene, COG K
[24] = LBA1467 Beta-galactosidase large subunit (lactase), COG G
[25] = LBA1468 Beta-galactosidase small subunit, COG G

SMILES: O=c1ccc2cc(O[C@@H]3O[C@H](CO)[C@@H](O)[C@H](O)[C@H]3O)c(O)cc2o1 [Esculin]
- Log2 differential normalized TPM ratio compared to glucose (LBA0016 Fructokinase, COG KG): 1.9
- Log2 differential normalized TPM ratio compared to lactose (LBA0016 Fructokinase, COG KG): 0.7
- Transcripts per million (rpm) (LBA0016 Fructokinase, COG KG): 347.8 rpm
- Log2 differential normalized TPM ratio compared to glucose [1]: 2.4
- Log2 differential normalized TPM ratio compared to lactose [1]: 1.9
- Transcripts per million (rpm) [1]: 88.3 rpm
- Log2 differential normalized TPM ratio compared to glucose [2]: 2
- Log2 differential normalized TPM ratio compared to lactose [2]: 0.5
- Transcripts per million (rpm) [2]: 408.4 rpm
- Log2 differential normalized TPM ratio compared to glucose [3]: 0.5
- Log2 differential normalized TPM ratio compared to lactose [3]: −1.1
- Transcripts per million (rpm) [3]: 78.4 rpm
- Log2 differential normalized TPM ratio compared to glucose [4]: 1.9
- Log2 differential normalized TPM ratio compared to lactose [4]: −0.1
- Transcripts per million (rpm) [4]: 286.5 rpm
- Log2 differential normalized TPM ratio compared to glucose [5]: 2.1
- Log2 differential normalized TPM ratio compared to lactose [5]: 0.4
- Transcripts per million (rpm) [5]: 50.6 rpm
- Log2 differential normalized TPM ratio compared to glucose [6]: 2.6
- Log2 differential normalized TPM ratio compared to lactose [6]: 2.5
- Transcripts per million (rpm) [6]: 592 rpm
- Log2 differential normalized TPM ratio compared to glucose [7]: 1.8
- Log2 differential normalized TPM ratio compared to lactose [7]: 1.4
- Transcripts per million (rpm) [7]: 179.3 rpm
- Log2 differential normalized TPM ratio compared to glucose [8]: 1.8
- Log2 differential normalized TPM ratio compared to lactose [8]: 0.9
- Transcripts per million (rpm) [8]: 5745.2 rpm
- Log2 differential normalized TPM ratio compared to glucose [9]: 1.6
- Log2 differential normalized TPM ratio compared to lactose [9]: 2.3
- Transcripts per million (rpm) [9]: 155 rpm
- Log2 differential normalized TPM ratio compared to glucose [10]: 1.2
- Log2 differential normalized TPM ratio compared to lactose [10]: 0.9
- Transcripts per million (rpm) [10]: 15.5 rpm
- Log2 differential normalized TPM ratio compared to glucose [11]: 1.3
- Log2 differential normalized TPM ratio compared to lactose [11]: 0.1
- Transcripts per million (rpm) [11]: 151.3 rpm
- Log2 differential normalized TPM ratio compared to glucose [12]: −0.9
- Log2 differential normalized TPM ratio compared to lactose [12]: 1.5
- Transcripts per million (rpm) [12]: 1.5 rpm
- Log2 differential normalized TPM ratio compared to glucose [13]: 2.7
- Log2 differential normalized TPM ratio compared to lactose [13]: 1.7
- Transcripts per million (rpm) [13]: 845.1 rpm
- Log2 differential normalized TPM ratio compared to glucose [14]: 2.4
- Log2 differential normalized TPM ratio compared to lactose [14]: 2
- Transcripts per million (rpm) [14]: 797.3 rpm
- Log2 differential normalized TPM ratio compared to glucose [15]: 2
- Log2 differential normalized TPM ratio compared to lactose [15]: 1.1
- Transcripts per million (rpm) [15]: 851.3 rpm
- Log2 differential normalized TPM ratio compared to glucose [16]: 2.3
- Log2 differential normalized TPM ratio compared to lactose [16]: 2.5
- Transcripts per million (rpm) [16]: 537 rpm
- Log2 differential normalized TPM ratio compared to glucose [17]: 1.7
- Log2 differential normalized TPM ratio compared to lactose [17]: 0.6
- Transcripts per million (rpm) [17]: 7.3 rpm
- Log2 differential normalized TPM ratio compared to glucose [18]: 4.9
- Log2 differential normalized TPM ratio compared to lactose [18]: 1.1
- Transcripts per million (rpm) [18]: 84.9 rpm
- Log2 differential normalized TPM ratio compared to glucose [19]: 3.2
- Log2 differential normalized TPM ratio compared to lactose [19]: −2.4
- Transcripts per million (rpm) [19]: 144.7 rpm
- Log2 differential normalized TPM ratio compared to glucose [20]: 3.4
- Log2 differential normalized TPM ratio compared to lactose [20]: −2.3
- Transcripts per million (rpm) [20]: 144 rpm
- Log2 differential normalized TPM ratio compared to glucose (LBA1459 Galactokinase, COG G): 2.3
- Log2 differential normalized TPM ratio compared to lactose (LBA1459 Galactokinase, COG G): −2.4
- Transcripts per million (rpm) (LBA1459 Galactokinase, COG G): 123.5 rpm
- Log2 differential normalized TPM ratio compared to glucose [21]: −0.5
- Log2 differential normalized TPM ratio compared to lactose [21]: −6.5
- Transcripts per million (rpm) [21]: 13 rpm
- Log2 differential normalized TPM ratio compared to glucose [22]: −0.3
- Log2 differential normalized TPM ratio compared to lactose [22]: −5
- Transcripts per million (rpm) [22]: 47.8 rpm
- Log2 differential normalized TPM ratio compared to glucose (LBA1464 Transposase, COG L): −1
- Log2 differential normalized TPM ratio compared to lactose (LBA1464 Transposase, COG L): −3.4
- Transcripts per million (rpm) (LBA1464 Transposase, COG L): 94.4 rpm
- Log2 differential normalized TPM ratio compared to glucose [23]: −0.3
- Log2 differential normalized TPM ratio compared to lactose [23]: −3.4
- Transcripts per million (rpm) [23]: 47.3 rpm
- Log2 differential normalized TPM ratio compared to glucose [24]: 2.2
- Log2 differential normalized TPM ratio compared to lactose [24]: −6.7
- Transcripts per million (rpm) [24]: 24.1 rpm
- Log2 differential normalized TPM ratio compared to glucose [25]: 0.8
- Log2 differential normalized TPM ratio compared to lactose [25]: −5.6
